Experimental data as given in US5045546A, “8-azabicyclo[3.2.1]octylalkylthiazolidines” (Hoechst-Roussel Pharmaceuticals Inc., priority 1990, dated 1991).
Like-named read-outs stand apart in the source and are kept apart here.

Legend:
[1] = tested on: apomorphine-induced climbing; test: inhibition of apomorphine-induced climbing in mice (climbing mice assay, antipsychotic activity); type: in vivo, CK-1 male mice; settings: Mus musculus, ip, 0.5 h, read-out: Antipsychotic Activity ED50
Procedure: The 8-azabicyclo[3.2.1]octylalkylthiazolidnones of the present invention are useful for treating psychoses by virtue of their ability to block apomorphine-induced climbing in mammals.
Antipsychotic activity is determined in the climbing mice assay by a method similar to those described by P. Protais et al., Psychopharmacol., 50,1 (1976) and B. Costall, Eur. J. Pharmacol., 50, 39 (1978).
The subject CK-1 male mice (23-27 grams) are group-housed under standard laboratory conditions. The mice are individually placed in wire mesh stick cages (4"×4"×10") and are allowed one hour for adaptation and exploration of the new environment. Then apomorphine is injected subcutaneously at 1.5 mg/kg, a dose causing climbing in all subjects for 30 minutes. Compounds to be tested for antipsychotic activity are injected intraperitoneally 30 minutes prior to the apomorphine challenge at a screening dose of 10 mg/kg.
For evaluation of climbing, 3 readings are taken at 10, 20 and 30 minutes after apomorphine administration according to the following scale:
4 paws on bottom (no climbing)
2 paws on the wall (rearing)
4 paws on the wall (full climb)
Mice consistently climbing before the injection of apomorphine will be discarded.
With full-developed apomorphine climbing, the animals are hanging onto the cage walls, rather motionless, over longer periods of time. By contrast, climbs due to mere motor stimulation usually only last a few seconds.
The climbing scores are individually totaled (maximal score; 6 per mouse over 3 readings) and the total score of the control group (vehicle intraperitioneally-apomorphine subcutaneously) is set to 100%. ED50 values with 95% confidence limits are calculated by a Linear Regression Analysis. Antipsychotic activity expressed as the ED50 value of representative 8-azabicyclo[3.2.1]octylalkylthiazolidinones as well as two standard antipsychotics are presented in Table I.

[2] = tested on: apomorphine induced stereotypy; test: inhibition of apomorphine stereotypy assay (potential for extrapyramidal side effects); type: in vivo, male Wistar rats; settings: rats, drug one hour prior to scoring, apomorphine 1.5 mg/kg s.c.
Procedure: Potential for undersirable extrapyramidal side effect activity is determined in the inhibition of apomorphine stereotypy assay by a method similar to those described by N. E. Anden, et al., J. Pharma. Pharmacol., 19, 627, (1967), and A. M. Ernst, et al., Psychopharmacologia (Berl.), 10, 316 (1967).
In this assay, groups of male Wistar rats (125-200 grams) are used and food and water are available ad libitum. Drugs are prepared using distilled water and, if insoluble, a suitable surfactant is added. The route of administration may be varied and the dosage volume is 10 ml/kg. For a primary screen, a group size of six is used. Drug is administered one hour prior to scoring and the animals are placed in individual clear plastic cages (24×14×13 cm). The control group receives vehicle. Apomorphine hydrochloride solution is prepared at a concentration of 15 mg/10 ml in a 0.03% ascorbic acid stock solution (30 mg of ascorbic acid in 100 ml of 1% saline) to increase the stability of the apomorphine hydrochloride while in solution. Apomorphine hydrochloride solution is administered at a dose of 1.5 mg/kg subcutaneous (s.c.) with a dosage volume of 1 ml/kg. Fifty minutes after drug dosing, stereotypic behavior is noted. Stereotypic activity is defined as sniffing, licking or chewing behavior that occurs in a repetitive manner and is rated as follows: Constant sniffing, licking or chewing without interruption; the animal is considered protected if this behavior is interrupted.
The percent effectiveness of a drug is determined by the number of animals protected in each group. Antipsychotics displaying little effect in this assay would be expected to show a low propensity to cause undersirable extrapyramidal side effects and/or tardive dyskinesias in mammals (N. C. Moore and S. Gershon, Clinical Neuropharmacology, 12, 167, (1989).
A dose-response is run in the same manner as a primary screen except that a group size of 10 is used and the animals are dosed in a randomized manner. One group receives vehicle. ED50 for stereotypy are calculated by means of probit analysis.
Inhibition of apomorphine induced stereotypy of respresentative 8-azabicyclo[3.2.1]octylalkylthiazolidinones of the present invention and two standards is given in Table II.

With `O=C(CCCN1CCC(O)(c2ccc(Cl)cc2)CC1)c1ccc(F)cc1` [haloperidol] as the compound, how does the ED50 [1] read?
Its ED50 is 0.16 mg/kg.

And the “% Inhibition of apomorphine induced stereotypy” value (from here on “% Inhibition”) ([2]; dose 0.2 mg/kg body wt.)?
The value was 50%.

`CSc1ccc2c(c1)N(CCC1CCCCN1C)c1ccccc1S2` (centres unmarked) [thioridazine] was tested. Which ED50 ([1]; climbing mice assay, compound intraperitoneal 30 minutes prior to apomorphine 1.5 mg/kg s.c., Linear Regression Analysis) did it give?
Its ED50 is 4.1 mg/kg.

What about the “% Inhibition” value ([2]; dose 16 mg/kg body wt.) of the same compound?
The value was 50%.

How did the ED50 [1] turn out when `CC1(C)SCN(CCCCN2C3CCC2CC(OC(c2ccccc2)c2ccccc2)C3)C1=O.Cl` (centres unmarked) [3-[4-[3-(diphenylmethoxy)-8-azabicyclo[3.2.1]octan-8-yl]-butyl]-5,5-dimethyl-4-thiazolidinone hydrochloride] was run?
The ED50 was 7.73 mg/kg.

What about the “% Inhibition” value ([2]; dose 40 mg/kg body wt.) of the same compound?
Its value is 17%.

Which ED50 [1] does the source give for `CC1SCN(CCCCN2C3CCC2CC(OC(c2ccccc2)c2ccccc2)C3)C1=O.Cl` (centres unmarked) [3-[4-[3-(diphenylmethoxy)-8-azabicyclo[3.2.1]octan-8-yl]-butyl]-5-methyl-4-thiazolidinone hydrochloride] here?
The ED50 was 12.1 mg/kg.

And the “% Inhibition” value ([2]; dose 20 mg/kg body wt.)?
The value was 0%.
